Data published in EPA's ToxValDB 9.5 (doi:10.2903/j.efsa.2014.3560).
≈ marks a conversion by molar mass, not a printed value.

Key:
[1] = test system: Typhlodromus pyri; experiment: LR50; higher = less toxic; conditions: chronic/long-term; duration: 7 days; mortality
[2] = test system: Aphidius rhopalosiphi; experiment: LR50; higher = less toxic; conditions: not reported; mortality
[3] = test system: Rattus norvegicus; conditions: for LD50: acute, oral, mortality; for NOAEL: reproduction developmental
[4] = test system: Lepomis macrochirus; conditions: acute; duration: 96 hours; mortality
[5] = test system: Canidae; conditions: chronic; duration: 1 years; oral; Dog Other; clinical signs
[6] = test system: Bibionidae; conditions: chronic/long-term; duration: 28 days; M/F; development
[7] = test system: Colinus virginianus; conditions: acute, oral, mortality
[8] = test system: Apis mellifera; conditions: acute, duration: 48 hours, mortality
[9] = test system: Tagia sp.
[10] = test system: Pimephales promelas; conditions: chronic/long-term
[11] = test system: Anas platyrhynchos

| SMILES | LR50 [1] [g/ha] | LR50 [2] [g/ha] | LD50 ([3]; F) [mg/kg-day] | LD50 ([3]; M) [mg/kg-day] | NOAEL ([3]; body weight) [mg/kg-day] | LC50 [4] [µg/L] | NOAEL [5] [mg/kg-day] | NOEC [6] [µg/L] | LD50 ([7]; diet) [mg/kg-day] | LD50 [7] [mg/kg-day] | LD50 ([8]; dermal) [µg/piece] | LD50 ([8]; oral, unspecified) [µg/piece] | LC50 ([9]; acute, duration: 14 days, mortality) [mg/kg] | NOEC ([9]; chronic/long-term, reproduction) [mg/kg] | NOEC [10] [µg/L] | LD50 ([11]; short-term, oral, feed, mortality) [mg/kg-day] | NOEC ([11]; reproductive, reproduction) [mg/kg-day] | NOAEL [3] [mg/kg-day] |
| --- | --- | --- | --- | --- | --- | --- | --- | --- | --- | --- | --- | --- | --- | --- | --- | --- | --- | --- |
| CC1(C)[C@H](C(=O)O[C@H](C#N)c2cccc(Oc3ccccc3)c2)[C@@H]1/C=C(\Cl)C(F)(F)F [gamma-Cyhalothrin] | 0.0006 | 0.23 | > 55 | > 50 | 0.5 | 0.0354 (≈ 0.0787 nM) | 0.5 | 0.0469 | 225 | > 2000 | 0.005 | 4.2 | > 1300 | 0.5 | 0.0155 | > 429 |  |  |
| CC1(C)[C@H](/C=C(\Cl)C(F)(F)F)[C@@H]1C(=O)O[C@@H](C#N)c1cccc(Oc2ccccc2)c1 [lambda-Cyhalothrin] |  |  |  |  |  |  | 0.5 |  |  |  |  |  |  |  |  |  | 1.35 |  |
| CC1(C)C(C=C(Cl)C(F)(F)F)C1C(=O)OC(C#N)c1cccc(Oc2ccccc2)c1 (stereo not drawn) [alpha-Cyhalothrin] |  |  |  |  | 0.5 |  |  |  |  |  |  |  |  |  |  |  |  | 0.125 |
